The record followed here is patent publication US20110244078A1 (priority 2010, published 2011).

A short description of the series: Moisture sensitivity: degradation of the isothiocyanate suspended in aqueous phosphate buffer. It counts as physicochemical. The conditions noted are these: WMEO (about 25% 4-HBITC) suspended in aqueous phosphate buffer, pH about 3.6, about 20-23° C. An excerpt:
As used herein, the term “moisture sensitive” means that the isothiocyanate compound degrades in the presence of water. This degradation proceeds via a hydrolysis reaction, thereby leading to a reduction in level of the active isothiocyanate antimicrobial agent with time of storage in the presence of water. The method for determining moisture sensitivity is set forth in the Test Method section below. […]
Moisture sensitive isothiocyanate compounds are identified by suspending the isothiocyanate containing material in an aqueous phosphate buffer (pH of about 3.6) at room temperature. […] The extraction procedure is repeated after 24 hours and the level of residual isothiocyanate compound is measured by supercritical fluid chromatography. […]
A white mustard essential oil is generated by adding water to ground white mustard seeds and then extracting the essential oil with supercritical carbon dioxide according to the known processes described in the art. […] The essential oil is suspended in an aqueous phosphate buffer (pH of about 3.6) at room temperature (about 20-23° C.) and the level of 4-hydroxybenzyl isothiocyanate measured at time zero and after about 24 hours of storage as described in the preceding section. […]

With `Oc1ccc(CN=C=S)cc1` [4-hydroxybenzyl isothiocyanate], the “percent reduction in level of 4-hydroxybenzyl isothiocyanate after 24 hours” value was “about 72%”.
